Structures are written as SMILES.

This assay has as its target T1, human IL-17AA (Homo sapiens, UniProt Q16552).
T1 construct: host or cells: HEK (human embryonic kidney) cells
T1 sequence (Q16552 24-155) 1: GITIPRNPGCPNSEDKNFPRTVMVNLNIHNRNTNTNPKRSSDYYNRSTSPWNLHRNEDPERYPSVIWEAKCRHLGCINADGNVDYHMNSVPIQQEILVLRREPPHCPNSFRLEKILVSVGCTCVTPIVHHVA
T1 sequence (Q16552 24-155) 2: T1 sequence (Q16552 24-155) 1
The assay is described as follows: IL-8 release assay in human epithelial keratinocytes adult (HEKa). It counts as cell-based. To be noted: 3 ng/ml human IL-17AA + 10 ng/ml human TNFalpha, 68-72 h, IL-8 by HTRF, read-out: Rel EC50 L-8 release assay. The essentials:
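IL-8 secretion, quantified by HTRF (665/620 nm) as percent of controls, served as the readout after 68–72 h culture of HEKa cells with compound plus IL-17AA (3 ng/ml final) and TNF-alpha (10 ng/ml final). Four-parameter logistic curves gave relative IC50 and Emax.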
(In general: TR-FRET usually uses a lanthanide donor and a delayed reading to cut background.)
In the case of `Cc1n[nH]c(C)c1-c1ccc(NC(=O)[C@@H](NC(=O)C2(F)CC2)[C@@H]2CCc3ccc(-c4ccnc(N5CC6(COC6)C5)c4)cc32)cc1` [Example 364, N-[(1S)-2-[4-(3,5-dimethyl-1H-pyrazol-4-yl)anilino]-1-[(1R)-6-[2-(6-oxa-2-azaspiro[3.3]heptan-2-yl)-4-pyridyl]indan-1-yl]-2-oxo-ethyl]-1-fluoro-cyclopropanecarboxamide], the EC50 (in general, the concentration giving half of the maximal effect) is under 100 nM.

On to `Cc1n[nH]c(C)c1-c1ccc(NC(=O)[C@@H](NC(=O)c2ccnn2C)[C@@H]2CCc3ccc(-c4cnn(C5CC5)c4)cc32)cc1` [Example 8, N-[(1S)-1-[(1R)-6-(1-cyclopropylpyrazol-4-yl)indan-1-yl]-2-[4-(3,5-dimethyl-1H-pyrazol-4-yl)anilino]-2-oxo-ethyl]-2-methyl-pyrazole-3-carboxamide], for which the 50% effective concentration (EC50) is under 100 nM. To `Cn1cncc1-c1ccc(NC(=O)[C@@H](NC(=O)C2(F)CC2)[C@@H]2CCCc3ccc(-c4ccnc(N5C[C@H]6C[C@@H]5CO6)c4)cc32)cc1O` [Example 404, 1-fluoro-N-[(1S)-2-[3-hydroxy-4-(3-methylimidazol-4-yl)anilino]-1-[(1R)-7-[2-[(1R,4R)-2-oxa-5-azabicyclo[2.2.1]heptan-5-yl]-4-pyridyl]tetralin-1-yl]-2-oxo-ethyl]cyclopropanecarboxamide] belongs over 1000 nM; to `Cn1cncc1-c1ccc(NC(=O)C(Cc2cc(-c3cccc(C(C)(C)N)c3)ccc2Cl)NC(=O)c2ccnn2C)cc1` (stereo not shown) [Example 176, N-[1-[[5-[3-(1-amino-1-methyl-ethyl)phenyl]-2-chloro-phenyl]methyl]-2-[4-(3-methylimidazol-4-yl)anilino]-2-oxo-ethyl]-2-methyl-pyrazole-3-carboxamide], under 100 nM. On to `Cc1n[nH]cc1-c1ccc(NC(=O)C(NC(=O)OC2CC2)C(c2ccccc2)c2cccc(-c3ccc(=O)n(C(C)C)c3)c2)cc1` (single isomer, unassigned; diastereomer 2) [Example 243, cyclopropyl N-[1-[[3-(1-isopropyl-6-oxo-3-pyridyl)phenyl]-phenyl-methyl]-2-[4-(3-methyl-1H-pyrazol-4-yl)anilino]-2-oxo-ethyl]carbamate (Diastereomer 2)], for which the EC50 lay within 100 to 1000 nM. Take `CC(C)n1cc(-c2ccc(Cl)c(C[C@H](NC(=O)C3CC(F)(F)C3)C(=O)Nc3ccc(-c4nncn4C)cc3)c2)ccc1=O` [Example 291, N-[(1S)-1-[[2-chloro-5-(1-isopropyl-6-oxo-3-pyridyl)phenyl]methyl]-2-[4-(4-methyl-1,2,4-triazol-3-yl)anilino]-2-oxo-ethyl]-3,3-difluoro-cyclobutanecarboxamide]: the EC50 was over 1000 nM. To `Cc1n[nH]c(C)c1-c1ccc(NC(=O)[C@@H](NC(=O)C2(F)CC2)[C@@H]2CCCc3ccc(-c4ccnc(N5CCNCC5)c4)cc32)cc1` [Example 39, N-[(1S)-2-[4-(3,5-dimethyl-1H-pyrazol-4-yl)anilino]-2-oxo-1-[(1R)-7-(2-piperazin-1-yl-4-pyridyl)tetralin-1-yl]ethyl]-1-fluoro-cyclopropanecarboxamide] belongs under 100 nM; to `Cc1n[nH]c(C)c1-c1ccc(NC(=O)[C@H](Cc2cc(-c3ccnc(N4C[C@H]5C[C@@H]4CO5)c3)ccc2Cl)NC(=O)C2(F)CC2)cc1` [Example 222, N-[(1S)-1-[[2-chloro-5-[2-[(1R,4R)-2-oxa-5-azabicyclo[2.2.1]heptan-5-yl]-4-pyridyl]phenyl]methyl]-2-[4-(3,5-dimethyl-1H-pyrazol-4-yl)anilino]-2-oxo-ethyl]-1-fluoro-cyclopropanecarboxamide], under 100 nM; to `CC(C)n1cc(-c2ccc(Cl)c(CC(NC(=O)OCC3(C)CC3)C(=O)Nc3ccc(-c4nncn4C)cc3)c2)ccc1=O` (stereo not shown) [Example 106, (1-methylcyclopropyl)methyl N-[1-[[2-chloro-5-(1-isopropyl-6-oxo-3-pyridyl)phenyl]methyl]-2-[4-(4-methyl-1,2,4-triazol-3-yl)anilino]-2-oxo-ethyl]carbamate], over 1000 nM. As for `Cc1n[nH]c(C)c1-c1ccc(NC(=O)[C@@H](NC(=O)c2ccnn2C)[C@@H]2CCc3ccc(-c4ccnc(C(C)C)c4)cc32)cc1` [Example 14, N-[(1S)-2-[4-(3,5-dimethyl-1H-pyrazol-4-yl)anilino]-1-[(1R)-6-(2-isopropyl-4-pyridyl)indan-1-yl]-2-oxo-ethyl]-2-methyl-pyrazole-3-carboxamide], the EC50 is under 100 nM. To `Cn1cncc1-c1ccc(NC(=O)[C@H](Cc2cc(-c3cccc([C@@H]4CNCCO4)c3)ccc2Cl)NC(=O)c2ccnn2C)cc1` [Example 221, N-[(1S)-1-[[2-chloro-5-[3-[(2R)-morpholin-2-yl]phenyl]phenyl]methyl]-2-[4-(3-methylimidazol-4-yl)anilino]-2-oxo-ethyl]-2-methyl-pyrazole-3-carboxamide] belongs 100 to 1000 nM; to `Cc1[nH]ncc1-c1ccc(NC(=O)C(Cc2cc(-c3ccc(=O)n(C(C)C)c3)ccc2Cl)NC(=O)c2ccnn2C)cc1` (stereo not shown) [Example 89, N-[1-[[2-chloro-5-(1-isopropyl-6-oxo-3-pyridyl)phenyl]methyl]-2-[4-(5-methyl-1H-pyrazol-4-yl)anilino]-2-oxo-ethyl]-2-methyl-pyrazole-3-carboxamide], 100 to 1000 nM; to `Cc1cnn(C)c1-c1ccc(NC(=O)[C@@H](NC(=O)C2(F)CC2)[C@@H]2CCc3ccc(-c4cc(N5C[C@@H]6C[C@H]5CO6)ncn4)cc32)cc1` [Example 365, N-[(1S)-2-[4-(2,4-dimethylpyrazol-3-yl)anilino]-1-[(1R)-6-[6-[(1S,4S)-2-oxa-5-azabicyclo[2.2.1]heptan-5-yl]pyrimidin-4-yl]indan-1-yl]-2-oxo-ethyl]-1-fluoro-cyclopropanecarboxamide], 100 to 1000 nM.

Take `CC(C)n1cc(-c2ccc3c(c2)[C@H]([C@H](NC(=O)c2ccnn2C)C(=O)Nc2ccc(-c4cncn4C)cc2)CC3)ccc1=O` [Example 3, N-[(1S)-1-[(1R)-6-(1-isopropyl-6-oxo-3-pyridyl)indan-1-yl]-2-[4-(3-methylimidazol-4-yl)anilino]-2-oxo-ethyl]-2-methyl-pyrazole-3-carboxamide]: the EC50 fell in the range of 100 to 1000 nM. Turning to `Cc1n[nH]c(C)c1-c1ccc(NC(=O)[C@@H](NC(=O)C2(F)CC2)C(C)c2cc(-c3ccc(=O)n(C(C)C)c3)ccc2Cl)cc1` (stereo partly drawn) [Example 51, N-[(1S)-2-[2-chloro-5-(1-isopropyl-6-oxo-3-pyridyl)phenyl]-1-[[4-(3,5-dimethyl-1H-pyrazol-4-yl)phenyl]carbamoyl]propyl]-1-fluoro-cyclopropanecarboxamide], the EC50 fell in the range of 100 to 1000 nM. For `Cc1nocc1C(=O)NC(Cc1cc(-c2ccc(=O)n(C(C)C)c2)ccc1Cl)C(=O)Nc1ccc(-c2ccnn2C)c(Cl)c1` (stereo not shown) [Example 102, N-[1-[[2-chloro-5-(1-isopropyl-6-oxo-3-pyridyl)phenyl]methyl]-2-[3-chloro-4-(2-methylpyrazol-3-yl)anilino]-2-oxo-ethyl]-3-methyl-isoxazole-4-carboxamide], the EC50 lay in the range of 100 to 1000 nM. As to `Cn1cncc1-c1ccc(NC(=O)C(Cc2cc(-c3ccnc(OCC(F)(F)F)c3)ccc2Cl)NC(=O)c2ccnn2C)cc1` (stereo not shown) [Example 152, N-[1-[[2-chloro-5-[2-(2,2,2-trifluoroethoxy)-4-pyridyl]phenyl]methyl]-2-[4-(3-methylimidazol-4-yl)anilino]-2-oxo-ethyl]-2-methyl-pyrazole-3-carboxamide], the EC50 is 100 to 1000 nM. Next, `Cc1n[nH]c(C)c1-c1ccc(NC(=O)[C@@H](NC(=O)C2(F)CC2)[C@@H]2CCCc3ccc(-c4cnn(C(F)F)c4)cc32)cc1` [Example 393, N-[(1S)-1-[(1R)-7-[1-(difluoromethyl)pyrazol-4-yl]tetralin-1-yl]-2-[4-(3,5-dimethyl-1H-pyrazol-4-yl)anilino]-2-oxo-ethyl]-1-fluoro-cyclopropanecarboxamide]: 100 to 1000 nM; `CC(C)c1cc(-c2ccc(Cl)c(CC(NC(=O)c3ccnn3C)C(=O)Nc3ccc(-c4nncn4C)cc3)c2)ccn1` (stereo not shown) [Example 75, N-[1-[[2-chloro-5-(2-isopropyl-4-pyridyl)phenyl]methyl]-2-[4-(4-methyl-1,2,4-triazol-3-yl)anilino]-2-oxo-ethyl]-2-methyl-pyrazole-3-carboxamide]: over 1000 nM. To `Cc1n[nH]c(C)c1-c1ccc(NC(=O)[C@H](Cc2cc(-c3ccnc(N4CCC5(COC5)C4)n3)ccc2Cl)NC(=O)C2(F)CC2)cc1` [Example 316, N-[(1S)-1-[[2-chloro-5-[2-(2-oxa-7-azaspiro[3.4]octan-7-yl)pyrimidin-4-yl]phenyl]methyl]-2-[4-(3,5-dimethyl-1H-pyrazol-4-yl)anilino]-2-oxo-ethyl]-1-fluoro-cyclopropanecarboxamide] belongs under 100 nM.

For `Cc1nncn1-c1ccc(NC(=O)C(Cc2cc(-c3ccc(=O)n(C(C)C)c3)ccc2Cl)NC(=O)c2ccnn2C)cc1` (stereo not shown) [Example 77, N-[1-[[2-chloro-5-(1-isopropyl-6-oxo-3-pyridyl)phenyl]methyl]-2-[4-(3-methyl-1,2,4-triazol-4-yl)anilino]-2-oxo-ethyl]-2-methyl-pyrazole-3-carboxamide], the EC50 is over 1000 nM.

Regarding `CC(C)n1cc(-c2ccc(Cl)c(CC(NC(=O)c3ccnn3C)C(=O)Nc3ccc(-c4c[nH]nc4C(F)(F)F)cc3)c2)ccc1=O` (stereo not shown) [Example 121, N-[1-[[2-chloro-5-(1-isopropyl-6-oxo-3-pyridyl)phenyl]methyl]-2-oxo-2-[4-[3-(trifluoromethyl)-1H-pyrazol-4-yl]anilino]ethyl]-2-methyl-pyrazole-3-carboxamide], the EC50 lay in the range of 100 to 1000 nM.

The values are drawn from patent publication US20220162191A1, “SMALL MOLECULE MODULATORS OF IL-17” (LEO PHARMA A/S, priority 2019, published 2022).
